Measured values from patent US20220202725A1, “Modified or Targeted Release Formulations of Linaclotide” (Ironwood Pharmaceuticals, Inc., priority 2015, published 2022).
Where no end group is shown, it is not given here.

Columns and labels:
[1] = test system: bladder afferents of CVH mice; test: Ex-vivo afferent recordings from bladder pelvic afferents during ramp distension; type: in vivo, C57/BL6 mice; settings: vs vehicle
Experimental: (§1) Male C57 BL/6 mice were used in all experiments. Colitis was induced by administration of TNBS as described previously (Brierley et al., (2011) J. Physiol, 15: 3575-3593, incorporated herein by reference in its entirety). Briefly, 13-week-old mice were administered an intra-colonic enema of 0.1 mL TNBS (130 μg/mL in 30% EtOH) via a polyethylene catheter inserted 3 cm from the anus of isoflurane anaesthetized mice. Mice were then individually housed and observed daily for changes in body weight, physical appearance and behavior. Histological examination of mucosal architecture, cellular infiltrate, crypt abscesses, and goblet cell depletion confirmed TNBS-induced significant damage by day 3-post treatment, largely recovered by day 7 and fully recovered at the day 28-time point (Brierley et al., (2008) Gastroenterology, 134: 2059-69, incorporated herein by reference). High-threshold nociceptors from mice at the 28 day time point display significant mechanical hypersensitivity, lower mechanical activation thresholds and display hyperalgesia and allodynia. As such, they are therefore termed ‘chronic visceral hypersensitivity’ (CVH) mice.
Pelvic bladder afferents are classified by their ability to respond to urinary bladder ramp distension. During bladder distension there is an increase in intravesical pressure and a corresponding increase in the afferent neuron activity. The mechanosensitivity of these afferents was tested in bladder preparations from healthy and CVH mice as well as CVH mice that received either a 2 week treatment of once daily oral gavage of vehicle or of linaclotide (3 μg/kg/day) by ramp distension to a final intravesical pressure of 30 mmHg.
Recordings were made from healthy and CVH mice, which had been chronically administered either vehicle or linaclotide (3 μg/kg/day) for a total duration to 2 weeks, and which were euthanized via CO2 inhalation and cervical dislocation. The animal was cut in two at the level of L2, removing vascular connections via the aorta and vena cava, yet ensuring the kidneys and ureters remained intact. […]

[2] = test system: bladder afferents and detrusor smooth muscle of CVH mice; test: Exogenous chemical stimulation of bladder afferents and bladder muscle (carbachol, αβMe-ATP, capsaicin); type: in vivo, C57/BL6 mice; settings: vs vehicle
Experimental: as §1
The chemosensitivity of bladder afferents was also tested following isolation of pelvic afferents and catheterisation of the bladder described above. Following an equilibration period, when bladder afferent responses to ramp distension are stable, the bladder was distended to a physiological pressure of 6 mmHg above baseline. At this point, the saline perfusion is stopped but the outflow tap remains closed as to maintain the volume in the bladder. The bladder is maintained in this state to accommodate the increase in volume for 45 minutes whilst the baseline intravesical pressure and afferent firing stabilize.
Following the equilibration period, the bath perfusion is briefly turned off and a bolus dose of agonist is applied. Carbachol (1 μM), αβMe-ATP (30 μM), and capsaicin (10 μM) were applied in series with a 1 hr washout period between each dose.
Chemosensitive responses were measured as the number of action potentials crossing a pre-set threshold at a given time following agonist administration. The intravesical pressure was determined as the change from baseline pressure at a given time following agonist administration.
Data are expressed as mean with the SEM, and n is the number of animals. Data were analyzed using unpaired t-test to determine significance when comparing single points or a two-way analysis of variance (ANOVA) when comparing between experimental groups throughout a ramp distension or exogenous agonist protocol. Differences were considered significant at P<0.05. […] Muscle compliance is calculated by plotting intravesical pressure against intravesical volume, which is in turn determined from the time taken to distend to a particular pressure.
Whole nerve multifiber afferent nerve activity was quantified using the spike 2 software, which counted the number of action potentials crossing a pre-set threshold. Data are expressed as mean±SEM. n indicates the number of individual animals. Data were analyzed using Prism 5 software (GraphPad Software, San Diego, Calif., USA) where appropriate, un-paired t-tests were used, or two-way analysis of variance (ANOVA) followed by posthoc tests. Differences were considered significant at a level of *P<0.05, **P<0.01 and ***P<0.001.

[3] = test system: retrogradely traced bladder thoracolumbar (TL) DRG neurons; test: Patch clamp recordings from retrogradely traced bladder DRG neurons; type: in vivo, C57/BL6 mice; settings: TL DRG neurons from CVH mice, once daily oral gavage for 2 weeks, vs vehicle
Experimental: Laparotomy was performed on anaesthetized (2-3% isofluorane/0.3 L/min O2) mice. […]; ThermoFisher product nr. C22842 (former LifeTechnologies)) was used for subserosal injection (2-3 ul per injection) in descending colon or dorsal and lateral bladder using a 30G Hamilton needle. Incision was closed with Prolene 6/0 suture (Johnson&Johnson product nr. 8636G). All mice were given 100 ul of buprenorphine (1:12) and Baytril (1:20) for post-operative care and left for 4 days before humanely killed for DRG cell culture.
Recordings were made from healthy and CVH mice. CVH mice received chronic administration of either vehicle or linaclotide (3 μg/kg/day) for a total duration of 2 weeks. Mice were euthanized via CO2 inhalation and DRGs from thoracolumbar (T10-L1) and lumbosacral (L6-S1) regions removed and digested with 3 mg mL−1 collagenase II (Gibco) and 4 mg mL−1 dispase (Gibco) for 30 min at 37° C., followed by 3 mg mL−1 collagenase II only for 10 min at 37° C. […]
Recordings were made similarly to those we have described previously (Brierley et al., 2011, ibid). […] Signals were amplified by using an Axopatch 200A amplifier, digitized with a Digidata 1322A and recorded using pCLAMP 9 software (Molecular Devices, Sunnyvale, Calif., USA). […] In current clamp studies a series of depolarizing pulses (500 ms, 10 pA step) were applied from a holding potential ([…]) and the rheobase (or amount of current (pA) required for action potential generation) determined. The number of action potentials at rheobase and 2× rheobase was also determined and the resting membrane potential was noted. […]
Action potentials were recorded in current clamp mode and the rheobase, or the amount of injected current (pA) required to elicit an action potential determined. The numbers of action potentials at rheobase and 2× rheobase were also recorded as well as noting the resting membrane potential. Data were analyzed using Prism 5 software (GraphPad Software, San Diego, Calif., USA) where appropriate, un-paired t-tests or one-way analysis of variance (ANOVA) followed by posthoc tests. […]

[4] = human volunteers; cited from earlier work

CCEYCCNPACTGCY (cysteine pairing not given here) [linaclotide]
afferent nerve activity over the time course of ramp distension ([1]; once daily oral gavage 3 μg/kg/day for 2 weeks, FIG. 2A, P≤0.001): significant decrease | peak afferent response to distension ([1]; once daily oral gavage 3 μg/kg/day for 2 weeks, FIG. 2B, P≤0.05): significant decrease | bladder compliance ([1]; once daily oral gavage for 2 weeks, FIG. 2C): no change | bladder afferent response to capsaicin ([2]; capsaicin 10 μM, once daily oral gavage for 2 weeks, p≤0.01): significantly reduced | bladder contraction response to carbachol ([2]; carbachol 1 μM, once daily dosing for 2 weeks): significantly reduced | bladder afferent response to carbachol ([2]; carbachol 1 μM, once daily oral gavage for 2 weeks, p≤0.001): significantly reduced | bladder contraction response to αβMe-ATP ([2]; αβMe-ATP 30 μM, once daily dosing for 2 weeks): significantly reduced | bladder afferent response to αβMe-ATP ([2]; αβMe-ATP 30 μM, once daily oral gavage for 2 weeks, p≤0.001): significantly reduced | resting membrane potential [3]: no effect | number of action potentials at 2× rheobase ([3]; p=0.02): significantly decreases | rheobase ([3]; p=0.02): significantly increases | oral dose found in feces [4]: about 5%
